The target in test [1] is T1, OXA-48 (Klebsiella pneumoniae, UniProt Q6XEC0).
T1 construct: made in house; host or cells: E. coli BL21(DE3), T7 expression system
The test can be described thus: OXA-48 primary enzymatic assay (nitrocefin substrate, fluorescence-quenching readout). It is filed as biochemical. The conditions noted are these: dose–response, median of triplicate wells; 15 min preincubation, 25 µM nitrocefin. Here is the method:
After an initial pilot run (three plates, consisting of 960 randomly selected compounds), the primary screening of the subset plates was carried out at 20 µM in single point against OXA-48 enzyme in a nitrocefin-based assay, using the fluorescence-quenching readout. This enzymatic assay employs the cephalosporin nitrocefin as OXA-48 substrate and takes advantage of the fluorescent properties of white microtiter plates. Chromogenic nitrocefin is hydrolyzed by β-lactamases to yield a product with increased absorbance properties (~495 nm) that quenches the plate fluorescence by absorbing the plate’s emission light. In this assay, test compounds that inhibit OXA-48 catalytic activity are predicted to reduce nitrocefin quenching of plate fluorescence, resulting in a quantitative increase in well fluorescence (ON-system for inhibitors). The nitrocefin-based epi-absorbance readout system has been successfully applied in HTS campaigns on other β-lactamases, such as IMP-1 and VIM-2, with the identification of inhibitors belonging to novel scaffolds displaying a favourable degree of selectivity and sub-micromolar potency.
The screening results were expressed as activity percent. […] Overall, the primary assay robustness was good, with Robust Z Prime factor (RZ′) equal to 0.86.
In total, 256 active molecules (125 from the subset and 131 from the full set) were then assayed in dose–response at eight concentrations from 60 to 0.002 µM with interplate triplicate data points.
The blaOXA gene coding for the OXA-48 ß-lactamase, originally cloned from the K. pneumonia 11978 (a clinical isolate from Istanbul Faculty Hospital, Istanbul, Turkey) was overexpressed via a T7 expression system in E. coli BL21(DE3), and its product, native protein, (final yield of 30 mg/L of culture) was subjected to several purification steps, including ion-exchange chromatography with Q-Sepharose and 20 mM Tris-HCl buffer (pH 9.0), followed by chromatography with S-Sepharose columns and 100 mM sodium phosphate buffer (pH 5.8). Elution of the beta-lactamase was performed with a K2SO4 gradient. Peaks of beta-lactamase activity were concentrated and were dialyzed with 100 mM phosphate buffer (pH 7.0). The OXA-48 enzyme was purified to homogeneity (with a degree of purity around 95.4%.)-as measured by 12% SDS PAGE [23]. OXA-48 protein stock solution (2 mg/mL) was finally prepared in 20 mM Hepes (pH 8,1). OXA-48 β-lactamase specific activity was measured by following the hydrolysis of 100 μM nitrocefin (ε: 17,000 M-1 cm^−1 at 482 nm; Δε: 15,000 M-1 cm^−1 at 482 nm) and corresponding to 60.45 μmoles min^−1 mg^−1 of OXA-48 (kcat = 28.85 s^−1) enzyme. A MW of 28,147 g/mol, calculated from the enzyme sequence was confirmed by MALDI-TOF analysis with a Mass error of ± 2.8 Da.
The primary assay was developed to monitor the enzymatic activity of OXA-48 taking advantage of the spectroscopic properties of white microtiter plates (Optiplate-384, PerkinElmer, #6007290), as indicated by Zuck et al.. Nitrocefin is chromogenic substrate for beta-lactamases with λmax = 395 nm (yellow). Upon hydrolysis by OXA-48, nitrocefin yields (2R)-2-[(R)-carboxy[2-(thiophen-2-yl)acetamido]methyl]-5-[(E)-2-(2,4-dinitrophenyl)ethenyl]-3,6-dihydro-2H-1,3-thiazine-4-carboxylic acid, with increased absorbance properties at λmax = 495 nm. Spectroscopic features of the reaction product are exploited to quench the plate intrinsic fluorescence by absorbing the plate’s emission light, which can be monitored by exciting the reaction at 485 nm and recording the emission at 520 nm. Therefore, the primary assay for HTS was an ON-assay, in which compounds targeting OXA-48 were predicted to elicit an increase of the fluorescence signal.
The primary assay was performed in reaction buffer (20 mM Hepes pH 8.0, 12.5 mM NaCl, 0.005% BSA, 0.0005% Brij-35) in the presence of 0.0014 ng/µL OXA-48 and 25 µM nitrocefin in a final volume of 20 µL/well in 384 MTP format. […]

The target in test [2] is T1, OXA-48. The test can be described thus: Dilution after preincubation of OXA-48 with inhibitors. It is filed as biochemical. Here is the method: To confirm the reversibility of OXA-48 inhibition by compounds ID1 and ID2, dilution-after-preincubation tests were also performed. Specifically, the experiments were conducted by preincubating (0 and 60 min) five-fold concentrated test compounds and OXA-48 enzyme, next diluting (1:5) the assay well to the standard reaction conditions and adding the nitrocefin substrate. In parallel, a control experiment with compounds ID1 and ID2 tested under the standard protocol was also run. Based on the assay design, reversible inhibitors are expected to regain enzyme activity after dilution of the enzyme-inhibitor (EI) complex and show no significant difference between AC50 values from samples preincubated under high-concentration and standard conditions. Conversely, irreversible inhibitors are envisaged not to recover any enzyme activity following dilution of the tight EI complex, which will translate in a […] in OXA-48 AC50 of high-concentration preincubated samples.
In order to validate the results obtained in the time-dependent inhibition assay, dose–response curves of reference inhibitor tazobactam, test compounds and enzyme mix were prepared as above described and 5-fold concentrated. Compounds (20 μL of 10X compounds) and enzyme (10 μL 20X enzyme in order to have a 0.0014 ng/µL OXA-48 final concentration) were preincubated for a time period of 60 min with the selected compounds and 90 min with tazobactam. The preincubation time was identified in the time-dependent inhibition experiment as suitable to detect a shift of the IC50 value. At the end of preincubation, the mix was diluted 1:5 times to restore the standard assay conditions as described for time-dependent inhibition. The reactions were started by transferring of 15 μL of enzyme-compounds or control diluted from preincubation plate into assay plate and adding 5 μL 4X nitrocefin substrate (25 µM final concentration) after 60 or 90 min. In parallel, a control experiment was assembled under the same conditions, but omitting the preincubation time between compounds and OXA-48.
a. If the AC50 value observed in the standard assay conditions was substantially unaffected by the preincubation with the 5X samples, the corresponding compound was classified as putative reversible inhibitor.

Setting [3] is: preincubation time 0 min, concentrated compound and enzyme, diluted 1:5 before nitrocefin, read-out: OXA-48 AC50, High Dose Preincubation.
Setting [4] is: preincubation time 0 min, read-out: OXA-48 AC50, Standard Preincubation.
Setting [5] is: preincubation time 60 min, concentrated compound and enzyme, diluted 1:5 before nitrocefin, read-out: OXA-48 AC50, High Dose Preincubation.
Where [6] appears, read: preincubation time 60 min, read-out: OXA-48 AC50, Standard Preincubation.

T1 sequence (Q6XEC0 23-265, looked up): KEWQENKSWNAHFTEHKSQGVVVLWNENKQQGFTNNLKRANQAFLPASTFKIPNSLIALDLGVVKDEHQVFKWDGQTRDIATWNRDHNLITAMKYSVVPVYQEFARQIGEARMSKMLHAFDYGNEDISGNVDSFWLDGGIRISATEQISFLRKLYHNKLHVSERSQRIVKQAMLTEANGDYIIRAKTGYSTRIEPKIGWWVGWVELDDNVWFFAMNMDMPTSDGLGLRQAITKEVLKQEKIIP

Consider `O=C(O)c1ccc(C=Nn2c(S)nnc2-c2ccccc2)cc1` [ID1], for which the concentration at half-maximal activity (AC50) (commonly the concentration giving half of the maximal activity seen) in test [1] worked out at 1.14 µM; in test [2] (setting [3]), 0.63 µM; in test [2] (setting [4]), 1.73 µM; in test [2] (setting [5]), 1.09 µM; in test [2] (setting [6]), 1.93 µM.
On the same counts, the results for `CCc1ccc(-c2n[nH]c3nc(-c4ccc(C(=O)O)cc4)cc(C(=O)O)c23)cc1` [ID2] are 0.99 µM, 1.01 µM, 2.31 µM, 1.45 µM and 2.44 µM.
For `C[C@]1(Cn2ccnn2)[C@H](C(=O)O)N2C(=O)C[C@H]2S1(=O)=O` [tazobactam, reference compound], the AC50 came out at 0.84 µM in test [1]; 0.79 µM in test [2] (setting [3]); 0.82 µM in test [2] (setting [4]); 0.097 µM in test [2] (preincubation time 90 min, concentrated compound and enzyme, diluted 1:5 before nitrocefin, read-out: OXA-48 AC50, High Dose Preincubation); 0.26 µM in test [2] (preincubation time 90 min, read-out: OXA-48 AC50, Standard Preincubation). Also, the “AC50 with concentrated preincubation relative to AC50 under standard assay protocol” value in test [2] (90 min preincubation) is recorded as “almost three-fold lower”.
